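Compound exposure: 48 hours, 5 concentrations, 96-well plates. TGI marks complete inhibition of growth.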
Experiments:
Assay in all cases: growth of human tumour cells (NCI), 48 h
SF-268 CNS = tested on: SF-268 CNS
MCF7 breast = tested on: MCF7 breast
OVCAR-3 ovarian = tested on: OVCAR-3 ovarian
OVCAR-8 ovarian = tested on: OVCAR-8 ovarian
K-562 leukemia = tested on: K-562 leukemia
UACC-257 melanoma = tested on: UACC-257 melanoma
MALME-3M melanoma = tested on: MALME-3M melanoma
HCT-15 colon = tested on: HCT-15 colon
CCRF-CEM leukemia = tested on: CCRF-CEM leukemia
PC-3 prostate = tested on: PC-3 prostate
MDA-N = tested on: MDA-N
KM12 colon = tested on: KM12 colon
HT29 colon = tested on: HT29 colon
U251 CNS = tested on: U251 CNS
NCI-H226 lung = tested on: NCI-H226 lung
HCT-116 colon = tested on: HCT-116 colon
A549 NSCLC = tested on: A549 NSCLC
NCI-H522 lung = tested on: NCI-H522 lung
SW-620 colon = tested on: SW-620 colon
SK-OV-3 ovarian = tested on: SK-OV-3 ovarian
LOX IMVI melanoma = tested on: LOX IMVI melanoma
SK-MEL-2 melanoma = tested on: SK-MEL-2 melanoma
ACHN renal = tested on: ACHN renal
RPMI-8226 leukemia = tested on: RPMI-8226 leukemia
OVCAR-4 ovarian = tested on: OVCAR-4 ovarian
DU-145 prostate = tested on: DU-145 prostate
EKVX NSCLC = tested on: EKVX NSCLC
M14 melanoma = tested on: M14 melanoma
CAKI-1 renal = tested on: CAKI-1 renal
MDA-MB-435 = tested on: MDA-MB-435
NCI-H23 lung = tested on: NCI-H23 lung
A498 renal = tested on: A498 renal
SK-MEL-28 melanoma = tested on: SK-MEL-28 melanoma
SF-539 CNS = tested on: SF-539 CNS
MDA-MB-231 breast = tested on: MDA-MB-231 breast
SNB-75 CNS = tested on: SNB-75 CNS
SK-MEL-5 melanoma = tested on: SK-MEL-5 melanoma
UO-31 renal = tested on: UO-31 renal
IGROV1 ovarian = tested on: IGROV1 ovarian
SN12C renal = tested on: SN12C renal
SNB-19 CNS = tested on: SNB-19 CNS
TK-10 renal = tested on: TK-10 renal
T-47D breast = tested on: T-47D breast
HOP-92 NSCLC = tested on: HOP-92 NSCLC
HCC-2998 colon = tested on: HCC-2998 colon
UACC-62 melanoma = tested on: UACC-62 melanoma
NCI/ADR-RES ovarian = tested on: NCI/ADR-RES ovarian
HS 578T breast = tested on: HS 578T breast
786-0 renal = tested on: 786-0 renal
NCI-H460 lung = tested on: NCI-H460 lung
HOP-62 NSCLC = tested on: HOP-62 NSCLC
RXF 393 renal = tested on: RXF 393 renal
COLO 205 colon = tested on: COLO 205 colon
SF-295 CNS = tested on: SF-295 CNS
OVCAR-5 ovarian = tested on: OVCAR-5 ovarian
MOLT-4 leukemia = tested on: MOLT-4 leukemia
HL-60(TB) leukemia = tested on: HL-60(TB) leukemia
SR leukemia = tested on: SR leukemia
BT-549 breast = tested on: BT-549 breast

Measured: TGI

Clc1ccc(C2ON=C(c3ccccc3)N2C23CC4CC(CC(C4)C2)C3)c(Cl)c1 (stereo not given)
not listed: HL-60(TB) leukemia | SR leukemia | BT-549 breast
> 10 µM: all other assays above

CN(C)CCCNC(=O)N/N=C\c1cccc2ccccc12
not listed: OVCAR-3 ovarian | UACC-257 melanoma | U251 CNS | NCI-H226 lung | SK-MEL-2 melanoma | CAKI-1 renal | MDA-MB-435 | NCI-H23 lung | SNB-19 CNS | 786-0 renal | BT-549 breast
> 10 µM: all other assays above

C=C=C(C)C(=O)N(C(C)C)C(C)C
not listed: KM12 colon | NCI-H522 lung | SK-MEL-2 melanoma | CAKI-1 renal | SF-539 CNS | HS 578T breast | RXF 393 renal
> 100 µM: all other assays above

COC(=O)c1ccc(NC(=O)c2cc3c(cc2Br)OCO3)o1
69.8 µM: SF-268 CNS
not listed: MALME-3M melanoma | SNB-75 CNS | HS 578T breast | NCI-H460 lung | RXF 393 renal
> 100 µM: all other assays above

CC(C)(C)OC(=O)NCCCCCCC(=O)Cc1ccccc1
not listed: SF-539 CNS | UACC-62 melanoma | HS 578T breast | HL-60(TB) leukemia
> 100 µM: all other assays above

— PubChem BioAssay (NCI)
